# Results from the supplement of paper PMC10307832.
# How the values were obtained:
# Assay in all cases: relative viability (nuclei count vs DMSO), 5 days (fraction); higher = more cells survive
# RU-SKI 43 + OSI-027 = compound: CC[C@@H](C)CNCC(=O)N1CCC2=C([C@@H]1COC3=CC=CC(=C3)C)C=CS2 [RU-SKI 43] + COc1cccc2cc(-c3nc([C@H]4CC[C@H](C(=O)O)CC4)n4ncnc(N)c34)[nH]c12 [OSI-027] (partner 0.5 µM)
# Method in brief: (§1)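 Nuclei were stained with Hoechst during a one-step fixation (final 0.05% Triton X-100, 1% formaldehyde, 1 ug/ml Hoechst) carried out 5 days after dosing, then counted on 4× images. The cells, lung cancer lines in 1536-well plates, had been dosed by pin tool the day after seeding with one drug alone or a fixed anchor-drug dose plus five library-drug doses (not always all listed) in √10 steps. Relative viability is the nuclei count in treated wells divided by that in vehicle wells, and each value is the median of duplicate plates.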
# RU-SKI 43 + Tozasertib = compound: CC[C@@H](C)CNCC(=O)N1CCC2=C([C@@H]1COC3=CC=CC(=C3)C)C=CS2 [RU-SKI 43] + Cc1cc(Nc2cc(N3CCN(C)CC3)nc(Sc3ccc(NC(=O)C4CC4)cc3)n2)n[nH]1 [Tozasertib] (partner 0.1 µM)
# Method in brief: as §1
# RU-SKI 43 + Phenformin = compound: CC[C@@H](C)CNCC(=O)N1CCC2=C([C@@H]1COC3=CC=CC(=C3)C)C=CS2 [RU-SKI 43] + N=C(N)NC(=N)NCCc1ccccc1 [Phenformin] (partner 250 µM)
# Method in brief: as §1
# Irinotecan + Pictilisib = compound: CCc1c2c(nc3ccc(OC(=O)N4CCC(N5CCCCC5)CC4)cc13)-c1cc3c(c(=O)n1C2)COC(=O)[C@]3(O)CC [Irinotecan] + CS(=O)(=O)N1CCN(Cc2cc3nc(-c4cccc5[nH]ncc45)nc(N4CCOCC4)c3s2)CC1 [Pictilisib] (partner 1 µM)
# Method in brief: as §1
cell line,measurement,setting,value
UMC-11,relative viability,RU-SKI 43 + OSI-027; first compound 0.1 µM,0.534
same,relative viability,RU-SKI 43 + OSI-027; first compound 0.3162 µM,0.631
same,relative viability,RU-SKI 43 + OSI-027; first compound 1 µM,0.492
same,relative viability,RU-SKI 43 + OSI-027; first compound 3.162 µM,0.5
same,relative viability,RU-SKI 43 + OSI-027; first compound 10 µM,0.463
same,relative viability,RU-SKI 43 + Tozasertib; first compound 0.1 µM,0.204
same,relative viability,RU-SKI 43 + Tozasertib; first compound 0.3162 µM,0.197
same,relative viability,RU-SKI 43 + Tozasertib; first compound 1 µM,0.19
same,relative viability,RU-SKI 43 + Tozasertib; first compound 3.162 µM,0.175
same,relative viability,RU-SKI 43 + Tozasertib; first compound 10 µM,0.18
same,relative viability,RU-SKI 43 + Phenformin; first compound 0.1 µM,0.349
same,relative viability,RU-SKI 43 + Phenformin; first compound 0.3162 µM,0.366
same,relative viability,RU-SKI 43 + Phenformin; first compound 1 µM,0.33
same,relative viability,RU-SKI 43 + Phenformin; first compound 3.162 µM,0.32
same,relative viability,RU-SKI 43 + Phenformin; first compound 10 µM,0.344
same,relative viability,Irinotecan + Pictilisib; first compound 0.6325 µM,0.317
same,relative viability,Irinotecan + Pictilisib; first compound 2 µM,0.532
same,relative viability,Irinotecan + Pictilisib; first compound 6.325 µM,0.215
same,relative viability,Irinotecan + Pictilisib; first compound 20 µM,0.158
